{"source": "patent US20240124444A1", "about": "(Celgene Corporation, priority 2020, published 2024)", "tested_on": "C. parvum strain UGA1", "assay": "C. parvum growth inhibition assay (Nluc luminescence in HCT-8 cells)", "format": "cell-based, Cryptosporidium parvum", "conditions": "Cryptosporidium parvum; for inhibition at 1 µM / inhibition at 10 µM: HCT-8; for inhibition at 1 µM: read-out: % inh @ 1 uM C. parvum; for inhibition at 10 µM: read-out: % inh @ 10 uM C. parvum; for EC50: HCT-8, 48 h, C. parvum growth inhibition in HCT-8 cells, 48 hours, 6 concentrations 10-0.04 μM", "key": {"[1]": {"conditions": "single point inhibition at 1 uM"}, "[2]": {"conditions": "single point inhibition at 10 uM"}, "[3]": {"conditions": "single point inhibition @ 10 uM"}}, "note": "Like-named read-outs stand apart in the source and are kept apart here.", "data": [{"compound": "Cc1nn(C)cc1C(=O)Nc1cc2[nH]c(-c3ccnc(OCC(F)F)n3)cc2cn1", "note": "[Example 317, N-(2-(2-(2,2-difluoroethoxy)pyrimidin-4-yl)-1H-pyrrolo[3,2-c]pyridin-6-yl)-1,3-dimethyl-1H-pyrazole-4-carboxamide]", "values": [{"measurement": "inhibition at 1 µM", "setting": "[1]", "result": "0 to 33", "unit": "%"}, {"measurement": "inhibition at 10 µM", "setting": "[2]", "result": "0 to 33", "unit": "%"}]}, {"compound": "O=C(Nc1cc2[nH]c(-c3ccnc(OCCCF)n3)cc2cn1)c1cnn(CC2CCCO2)c1", "note": "(stereo in doubt) [Example 171, (S)-N-(2-(2-(3-fluoropropoxy)pyrimidin-4-yl)-1H-pyrrolo[3,2-c]pyridin-6-yl)-1-((tetrahydrofuran-2-yl)methyl)-1H-pyrazole-4-carboxamide]", "values": [{"measurement": "inhibition at 1 µM", "setting": "single point inhibition @ 1 uM", "result": "0 to 33", "unit": "%"}, {"measurement": "inhibition at 10 µM", "setting": "[3]", "result": "67 to 100", "unit": "%"}]}, {"compound": "Cn1c(-c2cc(NCC(F)(F)F)ncn2)cc2cnc(NC3CCOCC3)cc21", "note": "[Example 365]", "values": [{"measurement": "EC50", "result": "> 1", "unit": "µM"}]}, {"compound": "O=C(Nc1cc2[nH]c(C3CC(F)(F)C3)cc2cn1)C1CC1", "note": "[Example 53, N-(2-(3,3-difluorocyclobutyl)-1H-pyrrolo[3,2-c]pyridin-6-yl)cyclopropanecarboxamide]", "values": [{"measurement": "EC50", "result": "> 1", "unit": "µM"}]}, {"compound": "Cc1cc(-c2cc3cnc(N(C)C4CCOCC4)cc3[nH]2)ccn1", "note": "[Example 114, N-methyl-2-(2-methylpyridin-4-yl)-N-(tetrahydro-2H-pyran-4-yl)-1H-pyrrolo[3,2-c]pyridin-6-amine]", "values": [{"measurement": "EC50", "result": "> 1", "unit": "µM"}]}, {"compound": "COc1nccc(-c2cc3cnc(NC(=O)c4cnn(CC5CCOC5)c4)cc3[nH]2)n1", "note": "(stereo in doubt) [Example 184, (R)-N-(2-(2-methoxypyrimidin-4-yl)-1H-pyrrolo[3,2-c]pyridin-6-yl)-1-((tetrahydrofuran-3-yl)methyl)-1H-pyrazole-4-carboxamide]", "values": [{"measurement": "inhibition at 1 µM", "setting": "single point inhibition @ 1 uM", "result": "0 to 33", "unit": "%"}, {"measurement": "inhibition at 10 µM", "setting": "[3]", "result": "67 to 100", "unit": "%"}]}, {"compound": "Cc1cc2cnc(NC(=O)C3CC3)cc2[nH]1", "note": "[Example 327, N-(2-methyl-1H-pyrrolo[3,2-c]pyridin-6-yl)cyclopropanecarboxamide]", "values": [{"measurement": "inhibition at 1 µM", "setting": "[1]", "result": "0 to 33", "unit": "%"}, {"measurement": "inhibition at 10 µM", "setting": "[2]", "result": "0 to 33", "unit": "%"}]}]}
